Bridges are numbered along the chain shown (N, C = ends). Where no end group is shown, it is not given here. [ ]: non-standard residue; d: D form. pGlu = O=C1CC[C@@H](C(=O)O)N1
Experiments:
Assay in all cases: Minimum inhibitory concentration, 96 well microtitre plate
Format in all cases: cell-based
Candida albicans (14053) = conditions: Candida albicans (ATCC 14053); 1/4 strength TSB, 1×10^5 /ml
Method: (§1) Antimicrobial activity was determined during the purification process. Approximately 2.5 ml fractions from the P-30 gel filtration column were assessed after drawing fractions and taking an aliquot of the fraction and spotting that fraction on a radial diffusion plate as described by Zasloff, M. (Proc. Natl. Acad. Sci USA 84: 5449-5453, 1987) against E. coli D31 or fungal pathogens such as Candida albicans, Candida tropicalis, or Staphylococcus aureus. (See also, Zasloff et al., Proc. Natl. Acad. Sci. USA 85: 910-913, 1988.) (FIGS. 1B and 1C.) Briefly, the minimal inhibitory concentrations (MIC's) were assessed using a 96 well microtitre plate (Corning Glass Works, Corning, N.Y.). Microorganisms were grown in log phase at 1/4 strength tryptics soy broth (TSB) at a density of 1×10^5 /ml. The assays used 1/4 strength TSB. For each organism, dilutions of peptide were made ranging from >500 μg/ml to 1 μg/ml using 1/4 strength TSB as a dilution buffer. Zones of bacterial growth or lack of growth were assessed under the microscope. MIC's were calculated based the lowest concentration of peptide that inhibited growth.

Escherichia coli (D31) = conditions: 1/4 strength TSB, 1×10^5 /ml
Method: as §1

[1] = system: Candida tropicalis (13803); conditions: Candida tropicalis (ATCC 13803); 1/4 strength TSB, 1×10^5 /ml
Method: as §1

[2] = system: Staphylococcus aureus (29213); conditions: Staphylococcus aureus (ATCC 29213); 1/4 strength TSB, 1×10^5 /ml
Method: as §1

[3] = system: Pseudomonas aeruginosa (27853); conditions: Pseudomonas aeruginosa (ATCC 27853); 1/4 strength TSB, 1×10^5 /ml
Method: as §1

Substance | Minimum Inhibitory Concentration (Candida albicans (14053)) [µg/mL] | Minimum Inhibitory Concentration (Escherichia coli (D31)) [µg/mL] | Minimum Inhibitory Concentration [1] [µg/mL] | Minimum Inhibitory Concentration [2] [µg/mL] | Minimum Inhibitory Concentration [3] [µg/mL]
Magainin II-amide | 50 to 100 | 13 to 25 | 13 to 25 | 50 to 100 | 13 to 25
[pGlu]GVRNSQSCRRNKGICVPIRCPGSMRQIGTCLGAQVKCCRRK (disulfide 9-38, 16-31, 21-39) [LAP, lingual antimicrobial peptide] | 32 to 63 | 16 to 32 | 16 to 32 | 63 to 125 | 63 to 125

Reference: patent US5550109A, “Inducible defensin peptide from mammalian epithelia” (priority 1994, dated 1996)
